Paper PMC5902452, “In silico optimization of a guava antimicrobial peptide enables combinatorial exploration for peptide design” (Nature Communications, 2018)
≈ marks a conversion by molar mass, not a printed value. Peptide text beside a SMILES is read from it.

What was measured:
[1] = test system: P. aeruginosa H1001 (fliC::luxCDABE); assay type: cell-based, Pseudomonas aeruginosa; conditions: SPOT-synthesized unpurified crude peptide (~70% purity); bioluminescent engineered P. aeruginosa; BM2 medium; 4 h, 37 °C; reduction of luminescence; 200 to 3 μg mL−1 tested
[2] = test system: Pseudomonas aeruginosa ATCC 27853; assay type: cell-based; conditions: ATCC 27853, 18 h
Text: Lysogeny Broth (LB) was used for cultures of Acinetobacter baumannii ATCC 19606, Enterococcus faecalis ATCC 29212, Escherichia coli ATCC 25922, Klebsiella pneumoniae ATCC 13883, Pseudomonas aeruginosa ATCC 27853, and S. aureus ATCC 25923. Brain Heart Infusion (BHI) broth was used for cultures of Listeria ivanovii Li 4pVS2 and Streptococcus pyogenes ATCC 19615. Yeast peptone dextrose (YPD) medium was used for Candida species (C. albicans ATCC 90028 and C. parapsilosis ATCC 22019). MH (Mueller Hinton) broth was used for suspend centrifuged culture of bacteria and yeasts in logarithmic phase to an A630 of 0.01 (~10^6 cfu mL^−1), except for S. pyogenes, L. ivanovii, and E. faecalis that were suspended in their respective growth medium. […] A microplate reader (UVM 340, Asys Hitech) was used to monitor the antimicrobial susceptibility by measuring the change in A630. […] Each experiment was performed in triplicate with positive (0.7% formaldehyde) and negative (without peptide) inhibition controls.

[3] = test system: methicillin-resistant S. aureus (MRSA); assay: Antibiofilm assay; assay type: cell-based, Staphylococcus aureus
Procedure: Overnight cultures of microorganisms [E. coli 0157, methicillin-resistant S. aureus (MRSA), K. pneumoniae 1825971, or C. albicans clinical isolate obtained from a blood culture maintained at LACEN (Laboratório Central de Saúde do Distrito Federal, a Brazilian reference laboratory for clinical isolates in Brasília, Brazil)] grown in LB broth (BD Difco) were diluted 1 in 100 in LB and Todd-Hewitt broth (BD Difco) or BM2 minimal medium [62 mM potassium phosphate buffer, pH 7.0, 7 mM (NH4)2SO4, 2 mM MgSO4, 10 μM FeSO4, 0.5% glucose], and 100 μL per well was added into 96-well round-bottom microplates. Absorbance at 600 nm was used to assess the planktonic cell growth. Non-adherent planktonic cells were removed from microtiter wells and washed twice with deionized water. Adherent cells were stained with 0.1% crystal violet for 20 min. The microplate wells were washed twice with deionized water, air dried, and solubilized with 110 μL of 70% ethanol. […] Biofilm formation was assessed by measuring the absorbance at 600 nm using a microplate reader (Bio-Tek Instruments, Inc., USA). The microdilution method for cationic peptides was used to determine the MIC for planktonic cells. Three biological replicates were performed for each experiment involving eight technical replicates.

P. aeruginosa ATCC 27853 = assay: SEM-FEG imaging; assay type: cell-based, Pseudomonas aeruginosa; conditions: 25 µM (MIC) and 50 µM, 1 h, 37 °C
Procedure: Bacteria in mid-logarithmic phase were collected by centrifugation ([…], 10 min, 4 °C), washed twice with PBS, and suspended in the same buffer at a density of 2 × 10^7 cfu mL^−1. […] As a negative control, cells were incubated in buffer without peptide. Microbial cells were then fixed with 2.5% glutaraldehyde, homogenized by gently inverting the tubes, and stored at 4 °C prior to SEM-FEG analysis. A Hitachi SU-70 Field Emission Gun Scanning Electron Microscope was used to record SEM-FEG images. The samples (gold plates where 20 µL of inoculum were deposited and dried under nitrogen) were fixed on an alumina SEM support with a carbon adhesive tape and were observed without metallization. In Lens Secondary electron detector (SE-Lower) was used to characterize our samples. The accelerating voltage was 1 kV and the working distance was around 15 mm. At least five to ten different locations were analyzed on each surface, leading to the observation of a minimum of 100 single cells.

[4] = test system: P. aeruginosa strain PAO1; assay: Scarification skin infection mouse model; assay type: in vivo, female CD-1 mice
Procedure: P. aeruginosa strain PAO1 was grown to an optical density at 600 nm (OD600) of 1 in tryptic soy broth medium. Subsequently cells were washed twice with sterile PBS, and resuspended to a final concentration of 5 × 10^7 CFU in 50 μL. To generate skin infection, female CD-1 mice (6 weeks old) were anesthetized with isoflurane and had their backs shaved. A superficial linear skin abrasion was made with a needle in order to damage the stratum corneum and upper layer of the epidermis. Five minutes after wounding, an aliquot of 50 μL containing 5 × 10^7 CFU of bacteria in PBS was inoculated over each defined area containing the scratch with a pipette tip. One day after the infection, peptides were administered to the infected area. Animals were euthanized and the area of scarified skin was excised 2 and 4 days post-infection, homogenized using a bead beater for 20 min (25 Hz), and serially diluted for CFU quantification. Two independent experiments were performed with four mice per group in each case. Statistical significance was assessed using a two-way ANOVA. Animals were maintained in accordance with the Guide for the Care and Use of Laboratory Animals in an AAALAC-accredited facility. All procedures were approved by the MIT’s Institutional Animal Care and Use Committee (IACUC), protocol number 1016-064-19.

E. coli ATCC 25922 = assay: Membrane polarization assay with DiSC3(5); assay type: cell-based, Escherichia coli; conditions: 12.5 µM (twofold above the MIC), 20 min, 37 °C
Procedure: When the cytoplasmic membrane is intact, the fluorescent probe DiSC3(5) accumulates into the cytoplasmic membrane and then aggregates, causing self-quenching of the fluorescence. In the presence of a membrane-depolarizing agent, DiSC3(5) is released into the medium, leading to an increase in fluorescence that can be monitored over time[59]. Briefly, exponentially growing bacteria were centrifuged (1000 × g, 10 min, 4 °C), washed with PBS, and resuspended in the same buffer to an A630 of 0.1; then 700 µL of bacteria were pre-incubated with 1 µM DiSC3(5) in the dark during 10 min at 37 °C, and then 100 µL of 1 mM KCl were added in order to equilibrate the cytoplasmic and external K^+ concentrations. […] Three independent experiments were performed and results correspond to a representative experiment with negative (PBS) and positive (melittin) controls.

CC[C@H](C)[C@H](NC(=O)[C@H](CCCNC(=N)N)NC(=O)[C@H](Cc1ccc(O)cc1)NC(=O)CNC(=O)[C@H](Cc1ccc(O)cc1)NC(=O)[C@H](CCCNC(=N)N)NC(=O)[C@H](CC(C)C)NC(=O)[C@H](C)NC(=O)[C@H](CCC(N)=O)NC(=O)[C@H](CCC(=O)O)NC(=O)[C@@H](NC(=O)[C@H](CCC(N)=O)NC(=O)[C@H](CCCNC(=N)N)NC(=O)[C@H](CCSC)NC(=O)[C@H](Cc1ccc(O)cc1)NC(=O)[C@H](CCC(N)=O)NC(=O)[C@@H](N)CCCNC(=N)N)[C@@H](C)CC)C(=O)N[C@@H](CO)C(=O)N[C@@H](CCCNC(=N)N)C(=O)N[C@@H](CCCNC(=N)N)C(N)=O [Guavanin 2] (H-RQYMRQIEQALRYGYRISRR-NH2)
MIC [1]: 6.25 µg/mL (≈ 2.36 µM) | Active concentration (MIC) [2]: 25 µM | antibiofilm activity [3]: only able to reduce C. albicans biofilms | membrane effect seen in SEM-FEG images (P. aeruginosa ATCC 27853): membrane damage (deformations/indentations) | reduction in bacterial counts ([4]; 6.25 μg mL−1 (lowest dose) applied to infected area 24 h after infection, after 4 days): 3 log | effect on CFU counts / bacterial load (two-way ANOVA) ([4]; doses 6.25, 25 and 100 µg mL−1, 4 days post-infection, two experiments, four mice per group): significantly reduced CFU counts | DiSC3(5) fluorescence change (membrane potential) (E. coli ATCC 25922): decrease in DiSC3(5) fluorescence
